Laboratory results from paper PMC9062515, “Identification of the Biosynthetic Pathway of Glycine Betaine That Is Responsible for Salinity Tolerance in Halophilic Thioalkalivibrio versutus D301” (Frontiers in Microbiology, 2022).

Experiments:
TvSDMT = biological target: T1, TvSDMT (Thioalkalivibrio versutus, UniProt A0A0G3G397); experiment: methyltransferase assay, HPLC of product; format: biochemical; details: 10 mM SAM, MgCl2, pH 7.5, 37 °C
T1 construct: gene TVD_00880; His-tagged, pET-28a(+), E. coli BL21(DE3), Ni Sepharose; calculated 32 kDa
T1 sequence (A0A0G3G397 1-282): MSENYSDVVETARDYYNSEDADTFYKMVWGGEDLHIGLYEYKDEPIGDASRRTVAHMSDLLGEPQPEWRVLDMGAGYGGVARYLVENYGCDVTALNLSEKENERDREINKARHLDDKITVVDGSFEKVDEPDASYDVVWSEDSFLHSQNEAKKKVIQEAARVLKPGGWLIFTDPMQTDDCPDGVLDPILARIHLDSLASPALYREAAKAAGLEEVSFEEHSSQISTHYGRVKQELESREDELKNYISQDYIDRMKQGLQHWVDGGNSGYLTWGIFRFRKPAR

TvGMT = biological target: T2, TvGMT (Thioalkalivibrio versutus, UniProt A0A0G3G560); experiment: methyltransferase assay, HPLC of product; format: biochemical; details: 250 mM glycine, 10 mM SAM, MgCl2, pH 7.5, 37 °C
T2 construct: gene TVD_00875; His-tagged, pET-28a(+), E. coli BL21(DE3), Ni Sepharose; calculated 32 kDa
T2 sequence (A0A0G3G560 1-272): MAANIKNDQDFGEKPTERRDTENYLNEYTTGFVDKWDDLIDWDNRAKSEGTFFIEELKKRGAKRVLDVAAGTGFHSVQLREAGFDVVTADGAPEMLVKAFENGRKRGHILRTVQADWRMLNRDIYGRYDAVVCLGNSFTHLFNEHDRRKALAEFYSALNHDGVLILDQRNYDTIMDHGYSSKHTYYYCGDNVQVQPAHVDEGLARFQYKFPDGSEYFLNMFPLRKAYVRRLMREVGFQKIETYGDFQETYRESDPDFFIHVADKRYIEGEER

SMILES: CN(C)CC(=O)O [dimethylglycine]
- methyltransferase assay, HPLC of product (TvSDMT; 50 mM dimethylglycine): exhibited activities on both sarcosine and dimethylglycine, showing a higher specific activity toward dimethylglycine

SMILES: NCC(=O)O [glycine]
- methyltransferase assay, HPLC of product (TvGMT): The purified TVD_RS00875 converted glycine to sarcosine with a relatively high specific activity

SMILES: CNCC(=O)O [sarcosine]
- methyltransferase assay, HPLC of product (TvSDMT; 60 mM sarcosine): TvSDMT, exhibited activities on both sarcosine and dimethylglycine
